Patent US12613236B2, “Lung fibrosis model and methods of using the same” (DUKE UNIVERSITY, priority 2019, dated 2026)

What was measured:
[1] = test system: TP53 signaling; experiment: Nutlin-3a treatment after bleomycin injury in Sftpc-CreER; R26R-tdTomato mice, AGER immunostaining; conditions: uninjured (PBS) mice that received Nutlin-3a; 20 mg kg-1 d-1 intraperitoneal for ten days
[2] = biological target: T1, Runx1 (Mus musculus, UniProt Q03347); experiment: Lipofibroblast culture with TGF-B induced myofibrogenesis, Runx1 pharmacologic inhibition; type: cell-based; conditions: lipofibroblasts cultured in the presence of Ro 5-3335 and TGF-B for 48 hours
T1 construct: Lipofibroblasts were cultured in the presence of Ro 5-3335 and TGF-B for 48 hours; endogenous in cells; host or cells: primary lung lipofibroblasts (mouse, inferred) in culture
T1 sequence (Q03347 whole entry): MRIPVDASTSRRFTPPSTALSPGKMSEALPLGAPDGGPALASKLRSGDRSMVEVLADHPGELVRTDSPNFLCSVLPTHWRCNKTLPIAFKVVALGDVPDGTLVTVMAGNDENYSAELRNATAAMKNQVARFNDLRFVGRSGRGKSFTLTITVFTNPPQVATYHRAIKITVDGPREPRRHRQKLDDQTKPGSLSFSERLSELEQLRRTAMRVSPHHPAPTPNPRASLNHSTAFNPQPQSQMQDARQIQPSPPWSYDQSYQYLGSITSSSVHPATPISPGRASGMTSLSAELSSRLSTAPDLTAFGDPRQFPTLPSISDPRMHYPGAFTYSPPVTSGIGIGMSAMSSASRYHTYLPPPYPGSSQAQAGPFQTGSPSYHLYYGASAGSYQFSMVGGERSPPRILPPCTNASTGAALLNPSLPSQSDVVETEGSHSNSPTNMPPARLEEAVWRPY

Q: How did the “AGER+Sftpc-tdt+ cells in uninjured lungs” value [1] turn out when COc1ccc(C2=N[C@@H](c3ccc(Cl)cc3)[C@@H](c3ccc(Cl)cc3)N2C(=O)N2CCNC(=O)C2)c(OC(C)C)c1 [Nutlin-3a] was run?
A: no AGER+Sftpc-tdt+ cells

Q: O=C1CN=C(c2ccc[nH]2)c2cc(Cl)ccc2N1 [Ro 5-3335] was tested. Which “PDGFRA expression and cell shape of lipofibroblasts” value [2] did it give?
A: maintained PDGFRA expression and their stellate shape

Q: What about the “aSMA expression and myofibrotic conversion” value [2] of the same compound?
A: virtually no aSMA expression and myofibrotic conversion
